Data: patent US8778941B2, “TRPM8 antagonists and their use in treatments” (AMGEN Inc., priority 2011, dated 2014)

These compounds were tested against T1, human TRPM8 (Homo sapiens, UniProt Q7Z2W7) (assay: Luminescence readout assay for measuring intracellular calcium (aequorin), hTRPM8 antagonism). Settings: CHO cell line expressing human TRPM8 and aequorin; activation by icilin, L-menthol or cold buffer (table does not say which).
T1 construct: expressed in transfected cells; host or cells: Chinese hamster ovary (CHO) cells, T-REx tetracycline-inducible expression system (Invitrogen), co-transfected with pcDNA3.1 jellyfish aequorin
T1 sequence (Q7Z2W7 whole entry): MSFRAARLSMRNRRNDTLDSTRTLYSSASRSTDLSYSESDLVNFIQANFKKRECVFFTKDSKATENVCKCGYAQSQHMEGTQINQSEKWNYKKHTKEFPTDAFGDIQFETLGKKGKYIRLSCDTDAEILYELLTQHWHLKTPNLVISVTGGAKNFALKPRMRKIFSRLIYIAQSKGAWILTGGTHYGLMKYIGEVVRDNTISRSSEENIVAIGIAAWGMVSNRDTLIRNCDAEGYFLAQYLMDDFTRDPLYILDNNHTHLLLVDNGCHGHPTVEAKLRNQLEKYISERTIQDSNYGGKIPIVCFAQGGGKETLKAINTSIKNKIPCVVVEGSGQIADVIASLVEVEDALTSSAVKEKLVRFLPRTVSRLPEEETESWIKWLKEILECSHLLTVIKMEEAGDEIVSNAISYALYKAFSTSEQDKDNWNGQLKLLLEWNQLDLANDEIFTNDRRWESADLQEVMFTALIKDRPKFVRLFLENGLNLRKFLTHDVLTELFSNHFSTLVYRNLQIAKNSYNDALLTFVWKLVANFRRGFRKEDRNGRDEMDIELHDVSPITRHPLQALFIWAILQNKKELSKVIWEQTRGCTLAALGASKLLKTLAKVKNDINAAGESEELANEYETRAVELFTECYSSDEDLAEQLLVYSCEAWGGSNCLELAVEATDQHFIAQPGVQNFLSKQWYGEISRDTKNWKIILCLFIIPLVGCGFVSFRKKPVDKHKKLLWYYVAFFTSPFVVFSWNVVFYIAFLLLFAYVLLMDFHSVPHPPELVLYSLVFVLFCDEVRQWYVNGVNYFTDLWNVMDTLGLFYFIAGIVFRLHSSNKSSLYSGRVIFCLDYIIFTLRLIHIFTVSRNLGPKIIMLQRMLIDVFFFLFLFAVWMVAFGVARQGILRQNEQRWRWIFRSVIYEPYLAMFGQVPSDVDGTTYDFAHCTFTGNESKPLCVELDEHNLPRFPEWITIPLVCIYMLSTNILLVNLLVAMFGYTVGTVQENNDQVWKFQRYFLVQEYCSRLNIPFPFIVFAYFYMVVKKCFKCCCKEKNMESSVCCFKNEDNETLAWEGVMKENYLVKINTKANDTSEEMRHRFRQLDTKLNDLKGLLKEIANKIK
Assay type: cell-based

First: O=C(N[C@@H](c1ccc(C(F)(F)F)c(F)c1)c1ncccc1C(F)(F)F)N1CCOCC1 [Example 167, (S)—N-((3-Fluoro-4-(trifluoromethyl)phenyl)(3-(trifluoromethyl)pyridin-2-yl)methyl)morpholine-4-carboxamide 2,2,2-trifluoroacetate]
Second: O=C(Nc1cncnc1)N[C@@H](c1ccc(C(F)(F)F)c(F)c1)c1ncccc1C(F)(F)F [Example 155, (S)-1-((3-fluoro-4-(trifluoro-methyl)-phenyl)(3-(trifluoro-methyl)-pyridin-2-yl)-methyl)-3-(pyrimidin-5-yl)urea (2,2,2-trifluoro-acetate)]
The IC50 of the first is 5.3-fold higher: 328 nM for the first, 62 nM for the second. The second is the more potent here.

`COc1ncc(NC(=O)N[C@@H](c2ccc(C(F)(F)F)cc2)c2ncccc2C(F)(F)F)cn1` [Example 159, (S)-1-(2-Methoxypyrimidin-5-yl)-3-((4-(trifluoromethyl)-phenyl)(3-(trifluoromethyl)pyridin-2-yl)methyl)urea] and `O=C(Nc1cc(Cl)nc(Cl)c1)N[C@@H](c1ccc(C(F)(F)F)cc1)c1ncccc1C(F)(F)F` [Example 76, (S)-1-(2,6-dichloropyridin-4-yl)-3-((4-(trifluoro-methyl)-phenyl)(3-(trifluoro-methyl)-pyridin-2-yl)-methyl)urea (2,2,2-trifluoro-acetate)] are within 1.5-fold of each other in IC50: 407 nM for the first, 294 nM for the second.

First: COc1cccc([C@@H](C)NC(=O)N[C@@H](c2ccc(C(F)(F)F)cc2)c2ncccc2C(F)(F)F)c1 [Example 128, 1-((R)-1-(3-methoxy-phenyl)ethyl)-3-((S)-(4-(trifluoro-methyl)-phenyl)(3-(trifluoro-methyl)-pyridin-2-yl)-methyl)urea (2,2,2-trifluoro-acetate)]
Second: COc1cccc([C@H](C)NC(=O)N[C@@H](c2ccc(C(F)(F)F)cc2)c2ncccc2C(F)(F)F)c1 [Example 84, 1-((S)-1-(3-methoxy-phenyl)ethyl)-3-((S)-(4-(trifluoro-methyl)-phenyl)(3-(trifluoro-methyl)-pyridin-2-yl)-methyl)urea (2,2,2-trifluoro-acetate)]
The IC50 of the first is 5.3-fold higher: 4060 nM for the first, 767 nM for the second. The second is the more potent here.

First: O=C(Nc1cccnc1)N[C@@H](c1ccc(C(F)(F)F)cc1)c1ncccc1Br [Example 28, (S)-1-((3-bromopyridin-2-yl)(4-(trifluoro-methyl)-phenyl)-methyl)-3-(pyridin-3-yl)-urea]
Second: O=C(Nc1cccnc1)NC(c1ccc(C(F)(F)F)cc1)c1cccnc1Br (centres unmarked) [Example 114, 1-((2-bromopyridin-3-yl)(4-(trifluoro-methyl)-phenyl)-methyl)-3-(pyridin-3-yl)-urea (2,2,2-trifluoro-acetate)]
The IC50 of the first is 13-fold lower: 67 nM for the first, 886 nM for the second.

Compared with `O=C(NCCc1c(Cl)cccc1Cl)N[C@@H](c1ccc(C(F)(F)F)cc1)c1ncccc1C(F)(F)F` [Example 132, (S)-1-(2,6-dichlorophen-ethyl)-3-((4-(trifluoro-methyl)-phenyl)(3-(trifluoro-methyl)-pyridin-2-yl)-methyl)urea (2,2,2-trifluoro-acetate)], `O=C(NCc1ccc(Cl)cc1)N[C@@H](c1ccc(C(F)(F)F)cc1)c1ncccc1C(F)(F)F` [Example 134, (S)-1-(4-chlorobenzyl)-3-((4-(trifluoro-methyl)-phenyl)(3-(trifluoro-methyl)-pyridin-2-yl)-methyl)urea (2,2,2-trifluoro-acetate)] is 1.6-fold higher in IC50: 673 nM for the first, 1070 nM for the second.

Going from `O=C1Cc2ccc(NC(=O)N[C@@H](c3ccc(C(F)(F)F)cc3)c3ncccc3F)cc2N1` [Example 166, (S)-1-((3-fluoropyridin-2-yl)(4-(trifluoro-methyl)-phenyl)-methyl)-3-(2-oxoindolin-6-yl)urea] to `Cn1ccc(NC(=O)N[C@@H](c2ccc(C(F)(F)F)cc2)c2ncccc2F)cc1=O` [Example 161, (S)-1-((3-fluoropyridin-2-yl)(4-(trifluoro-methyl)-phenyl)-methyl)-3-(1-methyl-2-oxo-1,2-dihydropyridin-4-yl)urea], the IC50 rises from 86 nM to 1250 nM (15-fold).

`N#Cc1ccc(NC(=O)N[C@@H](c2ccc(C(F)(F)F)cc2)c2ncccc2C(F)(F)F)cc1` [Example 46, (S)-1-(4-cyanophenyl)-3-((4-(trifluoro-methyl)-phenyl)(3-(trifluoro-methyl)-pyridin-2-yl)-methyl)urea] and `CC(=O)c1ccc(NC(=O)N[C@@H](c2ccc(C(F)(F)F)cc2)c2ncccc2C(F)(F)F)cc1` [Example 138, (S)-1-(4-acetylphenyl)-3-((4-(trifluoro-methyl)-phenyl)(3-(trifluoro-methyl)-pyridin-2-yl)-methyl)urea (2,2,2-trifluoro-acetate)] are within 1.5-fold of each other in IC50: 3560 nM for the first, 3720 nM for the second.

`CC(C)[C@H](C)NC(=O)N[C@@H](c1ccc(C(F)(F)F)cc1)c1ncccc1C(F)(F)F` [Example 65, 1-((S)-3-methylbutan-2-yl)-3-((S)-(4-(trifluoro-methyl)-phenyl)(3-(trifluoro-methyl)-pyridin-2-yl)-methyl)urea (2,2,2-trifluoro-acetate)] and `C[C@H](NC(=O)N[C@@H](c1ccc(C(F)(F)F)cc1)c1ncccc1C(F)(F)F)c1ccccc1` [Example 107, 1-((S)-1-phenylethyl)-3-((S)-(4-(trifluoro-methyl)-phenyl)(3-(trifluoro-methyl)-pyridin-2-yl)-methyl)urea (2,2,2-trifluoro-acetate)] are within 1.5-fold of each other in IC50: 141 nM for the first, 123 nM for the second.

Going from `Cc1noc(C)c1NC(=O)N[C@@H](c1ccc(C(F)(F)F)cc1)c1ncccc1C(F)(F)F` [Example 55, (S)-1-(3,5-dimethylisoxazol-4-yl)-3-((4-(trifluoro-methyl)-phenyl)(3-(trifluoro-methyl)-pyridin-2-yl)-metyl)urea] to `Cc1cc(C)c(NC(=O)N[C@@H](c2ccc(C(F)(F)F)cc2)c2ncccc2C(F)(F)F)c(C)c1` [Example 186, (S)-1-mesityl-3-((4-(trifluoro-methyl)phenyl) (3-(trifluoro-methyl)pyridin-2-yl)methyl)urea (2,2,2-trifluoro-acetate)], the IC50 rises from 50 nM to 1110 nM (22-fold).

First: O=C(Nc1cccs1)N[C@@H](c1ccc(C(F)(F)F)cc1)c1ncccc1C(F)(F)F [Example 113, (S)-1-(thiophen-2-yl)-3-((4-(trifluoro-methyl)-phenyl)(3-(trifluoro-methyl)-pyridin-2-yl)-methyl)urea (2,2,2-trifluoro-acetate)]
Second: O=C(Nc1ccccc1)N[C@@H](c1ccc(C(F)(F)F)cc1)c1ncccc1C(F)(F)F [Example 31, (S)-1-phenyl-3-((4-(trifluoro-methyl)-phenyl)(3-(trifluoro-methyl)-pyridin-2-yl)-methyl)urea]
The IC50 of the first is 2.2-fold higher: 175 nM for the first, 81 nM for the second.

Going from `COC(=O)c1ccccc1NC(=O)N[C@@H](c1ccc(C(F)(F)F)cc1)c1ncccc1F` [Example 118, (S)-methyl 2-(3-((3-fluoro-pyridin-2-yl)-(4-(trifluoro-methyl)-phenyl)-methyl)-ureido)-benzoate] to `O=C(Nc1ccc2occc2c1)N[C@@H](c1ccc(C(F)(F)F)cc1)c1ncccc1C(F)(F)F` [Example 39, (S)-1-(benzofuran-5-yl)-3-((4-(trifluoro-methyl)-phenyl)(3-(trifluoro-methyl)-pyridin-2-yl)-methyl)urea (2,2,2-trifluoro-acetate)], the IC50 rises from 162 nM to 4090 nM (25-fold). The first is the more potent here.

Compound `O=C(Nc1cccnc1)N[C@@H](c1ccc2ncccc2c1)c1ncccc1C(F)(F)F` [Example 17, (S)-1-(pyridin-3-yl)-3-(quinolin-6-yl(3-(trifluoro-methyl)-pyridin-2-yl)-methyl)urea] has an IC50 of 811 nM.
